≈ marks a conversion by molar mass, not a printed value. Read-outs that look alike come from different tables or passages of the source.
Assays:
[1] = Langmuir trough: surface pressure isotherms and BAM of pure films; format: physicochemical; conditions: pure film under compression
Experimental: The interactions of the microemulsion formulation SIME02A explained in Example 2 with a tear film lipid layer (TFLL) component were studied in a Langmuir trough model system. A naturally occurring lipid 20 (oleoyloxy)icosanoic acid (20-OAHFA) which represents the O-acyl-ω-hydroxy fatty acids in the TFLL was selected as a model lipid and synthesized as described in Bland et al. Langmuir 2019, 35, 3545-3552. The experiments were performed on a KSV NIMA Large trough equipped with a surface pressure balance with a platinum Wilhelmy plate, a KSV SPOT surface potential meter and KSV NIMA microBAM Brewster angle microscope (BAM), all from Biolin Scientific (Stockholm, Sweden). The Langmuir trough system was enclosed in a plastic hood with an inlet supply of dry and ozone-depleted air (Ozone solutions ODS-3P, Hull, Iow. USA) to prevent oxidation of lipids.
The Langmuir trough was filled with phosphate-buffered saline (PBS) as a subphase maintained at 35±1° C. to emulate the aqueous layer of the tear film. The model lipid 20-OAHFA or pure sacha inchi (SI) seed oil was dissolved in chloroform and spread on the surface of the PBS subphase. Chloroform was allowed to evaporate for 5 min. […] The lipid film was compressed and expanded in the trough with two Delrin barriers at a rate of 13 mm/min while the surface pressure and surface potential were measured. […]

[2] = Solubility of dexamethasone in microemulsion formulations; format: physicochemical; conditions: for solubility: aqueous with cosolvent or surfactant or cyclodextrin, equilibrium from dmso stock, room temperature, 8-9 days, read-out: Solubility of DXM
Experimental: The solubility of dexamethasone (DXM) in the microemulsion formulations was studied. To formulations containing 0.1%, 0.5%, 1%, or 5% of the sacha inchi seed oil, DXM ([…] stock in dimethyl sulfoxide, DMSO) was added at concentrations of […] in triplicate. […] The test vials were incubated at room temperature with continuous shaking (90 rpm) for 8-9 days until equilibrium. After incubation, the samples were mixed 1:1 with acetonitrile for 10 min and centrifuged (13,000 rpm, 10 min), followed by immediate HPLC analysis of the supernatant for DXM concentration. HPLC analysis was performed with Agilent 1100 series HPLC system and Eclipse XDB-C18 column (1.8 μm, 4.6×50 mm; Agilent) maintained at 60° C. Isocratic elution of the 5-μl sample injected was performed with 65% Eluent A (1% TFA in Milli-Q water) and 35% Eluent B (0.1% TFA in acetonitrile) at flow rate 1 ml/min and UV detection at 240 nm.

Compound | Surface pressure of transition to a solid monolayer [1] | Solubility of DXM relative to PBS ([2]; 1% oil concentration in the formulation) | solubility ([2]; microemulsion formulation with 5% sacha inchi seed oil, microemulsion with 5% oil) | Solubility of DXM relative to PBS ([2]; microemulsion with 5% oil) | Solubility of DXM relative to PBS ([2]; microemulsions with lower oil concentrations) | solubility ([2]; phosphate-buffered saline (PBS), PBS alone)
CCCCCCCC/C=C\CCCCCCCC(=O)OCCCCCCCCCCCCCCCCCCCC(=O)O [20-OAHFA, 20 (oleoyloxy)icosanoic acid] | 2.5 mN/m | – | – | – | – | –
C[C@@H]1C[C@H]2[C@@H]3CCC4=CC(=O)C=C[C@]4(C)[C@@]3(F)[C@@H](O)C[C@]2(C)[C@@]1(O)C(=O)CO [DXM, Dexamethasone] | – | 2.5 times | ~3700 µg/mL (≈ 9.43 mM) | about 15 times | at the same level as in PBS | ~250 µg/mL (≈ 0.637 mM)
